Data from patent publication US20090318389A1, “AGONISTS OF THE SPHINGOSINE-1 PHOSPHATE RECEPTOR” (PRAECIS PHARMACEUTICALS INCORPORATED, priority 2006, published 2009).

Columns and labels:
[1] = target: T1, S1P-1 receptor (Homo sapiens, UniProt P21453); test: [33P]sphingosine 1-phosphate binding assay, membranes of transfected HEK 293 T cells; details: for IC50: binding, 2.5 pM [33P]S1P, 60 minutes, room temperature; for IC50/IC50 (S1P-3/S1P-1): selectivity for S1P-1 over S1P-3
T1 construct: expressed in transfected cells; host or cells: HEK 293 T cells (crude membranes)
Protocol: (§1) The IC50 of a compound is determined using the [^33P]sphingosine 1-phosphate binding assay, as described in Davis, M. D. et al., Sphingosine 1-Phosphate Analogs as Receptor Antagonists. J. Biol. Chem. (2005) 280:9833-9841, the entire contents of which are incorporated herein by this reference.
(§2) The ability of several of the compounds described herein to bind to the S1P-1 or S1P-3 receptor was tested as follows.
(§3) For the membrane preparation, plasmid DNA was transfected into HEK 293 T cells using the FuGENE 6 transfection protocol Briefly, subconfluent monolayers of HEK 293 T cells were transfected with the DNA mixture containing FuGENE 6 (using a 1:3 ratio). The dishes containing the cells were then placed in a tissue culture incubator (5% CO2, 37° C.). The cells were harvested 48 hours after addition of the DNA by scraping in HME buffer (in mM: 20 HEPES, 5 MgCl2, 1 EDTA, pH 7.4, 1 mM PMSF) containing 10% sucrose on ice, and disrupted using aDounce homogenizer. After centrifugation at 800×g, the supernatant was diluted with HME without sucrose and centrifuged at 17,000×g for 1 hour. This crude membrane pellet was resuspended in HME with sucrose, aliquoted, and snap-frozen by immersion in liquid nitrogen. The membranes were stored at −70° C. Protein concentration was determined spectroscopically by Bradford protein assay.
(§4) For the binding assay, [^33P]sphingosine 1-phosphate (obtained from American Radiolabeled Chemicals, Inc) was added to membranes in 200 μL in 96-well plates with assay concentrations of 2.5 pM [^33P]sphingosine 1-phosphate, 4 mg/mL BSA, 50 mM HEPES, pH 7.5, 100 mM NaCl, 5 mM MgCl2, and 5 μg of protein. Binding was performed for 60 minutes at room temperature with gentle mixing and terminated by collecting the membranes onto GF/B filter plates. After drying the filter plates for 10 minutes, 50 μL of Microscint 40 was added to each well, and filter-bound radionuclide was measured on a Packard Top Count. Nonspecific binding was defined as the amount of radioactivity remaining in the presence of excess of unlabeled S1P.

[2] = target: T2, S1P-3 receptor (Homo sapiens, UniProt Q99500); test: as above; details: 2.5 pM [33P]S1P, 60 minutes, room temperature
T2 construct: expressed in transfected cells; host or cells: HEK 293 T cells (crude membranes)
Protocol: as §1, §2, §3, §4

[3] = target: T1, S1P-1 receptor; test: 35S-GTPγS binding assay (EC50, agonism); type: biochemical; details: 35S-GTPγS binding assay as described in WO 03/061567
Protocol: The terms “agonist” or “S1P-1 receptor agonist” as used herein include the compounds described herein which bind to and/or agonize the S1P-1 receptor. The EC50 of a compound is determined using the ^35S-GTPγS binding assay, as described in WO 03/061567, the entire contents of which are incorporated herein by reference.

T1 sequence (P21453 whole entry): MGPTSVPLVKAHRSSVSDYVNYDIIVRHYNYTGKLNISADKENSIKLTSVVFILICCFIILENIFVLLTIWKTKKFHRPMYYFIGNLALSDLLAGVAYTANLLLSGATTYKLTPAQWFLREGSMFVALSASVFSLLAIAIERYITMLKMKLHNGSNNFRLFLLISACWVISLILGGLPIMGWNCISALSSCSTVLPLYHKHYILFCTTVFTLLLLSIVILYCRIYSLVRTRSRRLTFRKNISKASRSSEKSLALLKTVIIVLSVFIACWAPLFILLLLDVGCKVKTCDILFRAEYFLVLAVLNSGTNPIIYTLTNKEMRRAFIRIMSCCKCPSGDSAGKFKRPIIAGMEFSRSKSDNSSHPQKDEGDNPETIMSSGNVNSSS
T2 sequence (Q99500 whole entry): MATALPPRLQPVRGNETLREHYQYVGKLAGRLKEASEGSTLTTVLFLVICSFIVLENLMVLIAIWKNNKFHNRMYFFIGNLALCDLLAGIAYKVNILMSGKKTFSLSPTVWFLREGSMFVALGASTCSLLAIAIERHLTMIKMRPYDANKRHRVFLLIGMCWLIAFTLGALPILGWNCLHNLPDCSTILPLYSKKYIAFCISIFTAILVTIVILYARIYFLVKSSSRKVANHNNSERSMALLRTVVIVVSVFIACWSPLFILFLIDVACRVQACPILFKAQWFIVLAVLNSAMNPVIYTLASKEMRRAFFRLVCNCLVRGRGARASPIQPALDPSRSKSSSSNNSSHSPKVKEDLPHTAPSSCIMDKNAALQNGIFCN

IC50 [1] [nM] | IC50 [2] [nM] | EC50 [3] [nM] | SMILES | IC50/IC50 (S1P-3/S1P-1) [1]
0.001 to 100 | 100 to 1000 | – | C[C@](N)(COP(=O)(O)O)c1ncc(-c2ccc(Sc3cccc(OCc4ccccc4)c3)cc2Cl)[nH]1 | +++ (great receptor selectivity (>1,000 fold))
0.001 to 100 | 1000 to 10000 | – | C[C@](N)(COP(=O)(O)O)c1ncc(-c2ccc(Sc3cccc(OCc4ccccc4)c3)c(C(F)(F)F)c2)[nH]1 | +++ (great receptor selectivity (>1,000 fold))
0.001 to 100 | > 10000 | – | C[C@](N)(COP(=O)(O)O)c1nnc(-c2ccc(Sc3cccc(OCc4ccccc4)c3)c(C(F)(F)F)c2)s1 | –
0.001 to 100 | 100 to 1000 | – | C[C@](N)(COP(=O)(O)O)c1nnc(-c2ccc(Sc3cccc(OCc4ccccc4)c3)cc2Cl)s1 | ++ (good receptor selectivity (>100-1,000 fold))
100 to 1000 | > 10000 | – | C[C@](N)(COP(=O)(O)O)c1nnc(-c2ccc(Sc3cccc(O)c3)cc2Cl)s1 | –
– | – | 6.9 | C[C@](N)(COP(=O)(O)O)C(=O)Nc1ccc(Sc2cccc(OCc3ccccc3)c2)cc1Cl [compound 7a] | –
